We go through two molecules from patent US10450317B2, “Notch pathway signaling inhibitor compounds” (Eli Lilly and Company, priority 2015, dated 2019).

The subject of experiment [1] is outer hair cells in organ of Corti explants. Description: Organ of Corti explant assay, immuno-staining and count of outer hair cells. Format: cell-based, mice. The settings on record: explants cultured four days at 1 μM; relative to negative control-treated samples. Here is the method: The bulla and surrounding tissue from the petrous portion of the temporal bone are removed from 1 to 4 day-old postnatal mice (transgenic strain: Atoh1-driven nGFP; Lumpkin E A, et al., Gene Expr Patterns, 2003, (36):389-95) of both sexes. Organs of Corti are dissected in Hanks solution, the spiral ligament is removed and the explants are placed on cover slips coated with poly-L-ornithine (0.01%, Sigma) and laminin ([…], Becton Dickinson) to obtain a preparation with a flat cochlear surface. Each cochlear explant is then placed in a single well of a 24 well plate (Falcon) and cultured in DMEM (Invitrogen) with 5% fetal bovine serum, 5% horse serum, and penicillin-streptomycin (LifeTechnologies). Experimental compounds are added with medium on Day 0 and replaced every 2-3 days. All cultures are maintained in a 5% CO2 humidified incubator at 37° C.
Following the explant culture, tissues are fixed in the 24 well plate with 200 μl Cytofix/Cytoperm (BD) for 30 min, rinsed with PBS containing TritonX100 (PBST), and stained with 200 μl of primary antibody solution, consisting of 4% normal donkey serum in PBST with goat anti-GFP (1:2500; AbCAM, ab5450) and rabbit anti-myosinVIIa (1:1000; Proteus Bioscience #25-6790) for 1 hour. […] Blinded cell counts are measured in five separate experiments. […]

The subject of a further experiment is mAtoh1. The experiment in a line: Induction of mAtoh1 expression in otic spheres (qRT-PCR). The class given is cell-based, mice. Particulars: 7 days, fold-induction relative to DMSO control, ± SEM. As to the method: Generally, organ of Corti cell isolation is carried out on Day 0, largely by the method in Oshima et al., Methods Mol Biol., 2009; 493: 141-162. Cell culture and propagation are carried out for 3-4 days. Cell plating and test compound treatment takes place on Day 3 or 4. Attachment and differentiation is allowed to take place over the next 7 days. On Days 10 or 11, cell lysis and RNA isolation is carried out. TagMan qRT-PCR is carried out on Day 12 and the results analyzed on Days 13-15 for Atoh1 and Tbp1 expression.
Surrounding tissue from the petrous portion of the temporal bone are removed from 1 to 4 day-old postnatal mice (transgenic strain: mAtoh1-driven nGFP; Lumpkin E A, et al., Gene Expr Patterns, 2003; (36): 389-95 of both sexes. The conch shaped cochlea is separated from the vestibular system using forceps. At this stage of development, the bony labyrinth is not completely calcified and is easily dissected using forceps. Carefully open the bony labyrinth of the cochlea and remove the spiral ligament and attached organ of Corti coiled together along the spiral of the modiolus by unwinding apically from the modiolus. Starting at the base, separate the spiral ligament from the organ of Corti using fine forceps.
Transfer the dissected organ of Corti (OC) into individual 1.5 ml tubes filled with 850 ice cold HBSS. Transfer up to 12 OC tissues into the same tube, Quick-spin down OC tissues and remove the HBSS. Disassociate the cells by adding 100 μl pre-warmed TrypLE™ Select (Life Technologies) and incubate at 37° C. for 13 min. Quick spin down dissociated OC tissues. Remove TrypLE™ Select. Add 100 μl of Medium A (DMEM/F12, N2 supplement (LifeTechnologies), B27 supplement (LifeTechnologies), ampicillin (50 μg/ml) and Fungizone (LifeTechnologies), EGF (20 ng/ml), bFGF (10 ng/ml), IGF-1 50 ng/ml), and heparan sulfate (50 ng/ml)). The dissected and digested tissue is then triturated with a P200 pipette tip. Remove any cell aggregates and debris; transfer the cell suspension and wash through a pre-wetted 70 μm cell strainer to pool the cell suspension in a single fresh culture tube. Rinse dissociation tubes and the cell strainer with sufficient Medium A and pool with the cell suspension. Count cell density with hemocytometer or Countess® (Life Technologies). Add fresh Medium A to cell suspension to achieve a final plating density of 1.0E5 cell/ml and plate into ultra-low attachment cultureware, T-75 (Greiner).
The dissociated, single cells are cultured in an ultra-low attachment cultureware, (Greiner) in Medium A for 3 to 4 days in a 5% CO2 humidified incubator at 37° C. to obtain clonally grown spheres, termed first generation spheres, from the floating cells. If cells stick to the non-adherent dishes during the culture period they can be dislodged by gentle mixing.
After culturing the spheres for 3-4 days, visually count the spheres by microscope to standardize the seeding density of otic spheres per ml for this step. Collect the cells by centrifugation and re-suspend spheres in Basic Medium at a concentration of approximately 2000 spheres per ml. Seed the spheres in a volume of 150 μl per well of a cell culture-treated 96 well plate to obtain approximately 300 spheres per well. Treat the spheres with experimental agents in quadruplicate at a final volume of 200 μl in Basic Medium (DMEM/F12, N2 supplement (LifeTechnologies) B27 supplement (LifeTechnologies), ampicillin (50 μg/ml) and Fungizone (LifeTechnologies). Culture the treated spheres for 7 days in a humidified temperature controlled incubator at 5% CO2, 37° C. Remove medium and proceed with RNA extraction.
Add buffer RLT plus (Qiagen) supplemented with 1% Beta-mercaptoethanol, 175 μl per well. Add 2.5 μl of 4 ng/μl of RNA carrier (RNeasy® Plus Micro Kit; Qiagen) diluted in Buffer RLT Plus into each well before RNA extraction. Total RNA is extracted using the RNeasy® Plus Micro Kit (Qiagen) according to the manufacturer's instructions. […]

`COc1ccc2c(c1)N1CCC(C)(C)C1=CC(=O)C2NC(=O)[C@H](C)NC(=O)CCC(F)(F)F` (single isomer, unassigned) [Compound 1, Isomer 2]: in experiment [1], the “Percent Increase in hair cells” value was determined as 14.15 ± 1.9%. In the experiment on mAtoh1, the “RQ at 10 nM (Atoh1 expression)” value came to 1.43 ± 0.17, the “RQ at 100 nM (Atoh1 expression)” value stood at 1.76 ± 0.17 and the “RQ at 1 μM (Atoh1 expression)” value came to 1.64 ± 0.13.
Regarding `C[C@H](NC(=O)CCC(F)(F)F)C(=O)NC1C(=O)C=C2N(CCC2(C)C)c2ncccc21` (single isomer, unassigned) [Compound 2, Isomer 2], the “Percent Increase in hair cells” value in experiment [1] is on record as 17.26 ± 1.2%. In the experiment on mAtoh1, the “RQ at 10 nM (Atoh1 expression)” value is listed as 1.14 ± 0.07, the “RQ at 100 nM (Atoh1 expression)” value came to 1.21 ± 0.13 and the “RQ at 1 μM (Atoh1 expression)” value is recorded as 1.57 ± 0.11.
